# Read-outs that look alike come from different tables or passages of the source.
# Assays:
# [1] = target: MAT2A recombinant protein (Homo sapiens, UniProt P31153); experiment: MAT2A inhibitory activity (malachite green colorimetric enzyme assay); type: biochemical
# Excerpt: MAT2A catalyzes the reaction of L-methionine and ATP to generate S-adenosylmethionine (SAM), inorganic phosphonic acid, and inorganic diphosphonic acid. Malachite green reacts with inorganic phosphonic acid to generate a green product, and the enzyme activity of MAT2A can be indirectly reflected by detecting the content of the inorganic phosphonic acid in a sample.
# The test compounds were formulated using DMSO and diluted 1:3 diluted through 10 concentration points to give a final starting concentration in the reaction system of 1000 nM. The test compounds at different concentrations described above were transferred to a 384-well plate. Experimental buffer (50 mM HEPES pH 7.5, 50 mM KCl, 10 mM MgCl2, 10 mM DTT) was prepared. 2×MAT2A recombinant protein was prepared using the buffer and added to a 384-well plate. A mixed solution of 2×L-methionine and ATP was prepared using the buffer, and added to a 384-well plate. The enzymatic reaction was started, and the reaction was carried out at room temperature for 60 min. 20 μL of a colorimetric detection reagent was added to the above system, and incubated at room temperature for 15 min. The absorbance at 630 nm was measured. The inhibition rate of the compound on the enzyme activity was calculated, and the inhibition rate value and the logarithm value of the compound concentration were fitted using non-linear regression (dose response-variable slope) to give the IC50 value of the test compound.
# [2] = test system: SDMA in HCT116-MTAP-knockout cell line; experiment: Cell symmetric dimethylarginine (SDMA) test, In-cell Western, HCT116-MTAP-knockout; type: cell-based; details: Homo sapiens, 96 h
# [3] = test system: SDMA in human colon cancer cell line HCT116; experiment: Cell symmetric dimethylarginine (SDMA) test, In-cell Western, HCT116 (MTAP wild-type); type: cell-based; details: Homo sapiens, HCT-116, 96 h
# Excerpt: MAT2A catalyzes the reaction of L-methionine and ATP to generate SAM, inorganic phosphonic acid, and inorganic diphosphonic acid. SAM is an important methyl donor, and is a substrate of arginine methyltransferase 5 (PRMT5). PRMT5 catalyzes SDMA modification of multiple proteins within a cell. The intracellular SDMA modification level was detected by ICW (In-cell Western), and the inhibition of the test compound on the enzymatic activity of intracellular MAT2A was indirectly reflected.
# In the present application, the human colon cancer cell line HCT116 and the corresponding HCT116-MTAP-knockout cell line were seeded into a 96-well cell culture plate at an appropriate cell density. After 24 h, the cells were treated using the test compounds diluted 1:4 fold at the highest concentration of 6 μM for 6 gradients, and a DMSO treatment group was set up separately. The cells were cultured in a 37° C./5% CO2 incubator for 4 days. To test the inhibitory activity of the test compounds against tumor cell SDMA, the medium was discarded, and the plate was washed 3 times with PBST. 4% paraformaldehyde was then used at room temperature for fixation for 20 min. The fixation solution was discarded, the plate was washed 3 times with PBST, and a special blocking solution was added to each well for blocking at room temperature for 2 h. The blocking solution was discarded. After the plate was washed 3 times with PBST, the plate was incubated with SDMA antibody at 4° C. overnight. The next day, the plate was washed 3 times with PBST. The secondary antibody and DRAQ5 were diluted to an appropriate concentration with the blocking solution, and incubated at room temperature for 2 h; the plate was washed 3 times with PBST, and the fluorescence signals at 700 nm and 800 nm were detected using a Li—COR Odyssey two-color near-infrared laser imager.
# The data was then processed. After the corresponding background value was subtracted from each well, statistical analysis was performed on the 800 nm/700 nm ratio for each well, a sigmoidal dose-inhibition curve was plotted using a non-linear regression model, and IC50 values were fitted and calculated. Inhibition Rate (%)=(1−SDMA dose/SDMA DMSO control)*100. SDMA dose is the value of the drug treatment group, and SDMA DMSO control is the value of the DMSO control group.
# [4] = IC50 score class, read-out: MAT2A Inhibition (score)
# [5] = IC50 score class, read-out: Cell 96 h SDMA Inhibition (HCT116-MTAP−/−) (score)
# [6] = read-out: Cell 96 h SDMA Inhibition (HCT116-MTAP−/−)
# [7] = IC50 score class, read-out: Cell 96 h SDMA Inhibition (HCT116-MTAP+/+) (score)
# [8] = read-out: Cell 96 h SDMA inhibition (HCT116-MTAP+/+)
# MAT2A recombinant protein, sequence (P31153 whole entry): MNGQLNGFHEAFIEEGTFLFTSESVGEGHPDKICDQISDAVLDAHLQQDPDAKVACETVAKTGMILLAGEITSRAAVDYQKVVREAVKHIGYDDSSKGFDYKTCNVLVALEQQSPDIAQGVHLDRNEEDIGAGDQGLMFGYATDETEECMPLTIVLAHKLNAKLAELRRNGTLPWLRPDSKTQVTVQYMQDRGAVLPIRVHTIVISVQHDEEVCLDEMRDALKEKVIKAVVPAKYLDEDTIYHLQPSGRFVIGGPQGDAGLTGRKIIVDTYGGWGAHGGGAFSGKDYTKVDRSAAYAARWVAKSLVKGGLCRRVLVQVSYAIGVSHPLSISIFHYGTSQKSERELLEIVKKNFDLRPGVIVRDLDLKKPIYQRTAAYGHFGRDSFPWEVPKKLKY
SMILES,"IC50 [1, 4] [µM]",IC50 ([1]; read-out: MAT2A Inhibition) [µM],"IC50 [2, 5] [µM]","IC50 [2, 6] [µM]","IC50 [3, 7] [µM]","IC50 [3, 8] [µM]"
CCn1cc2c(n1)c(=O)n(-c1cccc(C(F)(F)F)c1)c1cc(Cl)ccc21 [Compound B15],> 1,> 1,,,,
Cn1cc2c(n1)c(=O)n(-c1cccc(NS(C)(=O)=O)c1)c1nc(C(F)(F)F)ccc21 [Compound B214],< 0.1,0.0149,,,,
Cn1cc2c(n1)c(=O)n(-c1cccc(O)c1)c1cc(Cl)ccc21 [Compound B152],< 0.1,0.0718,0.2 to 1,0.228,> 3,17.4
Cn1cnc2c(=O)n(-c3cccc4ccccc34)c3cc(Cl)c(C#N)cc3c21 [Compound B378],> 1,> 1,,,,
CCn1nc2c(=O)n(-c3cccnc3)c3cc(Cl)ccc3c2c1C(F)(F)F [Compound B24],0.1 to 1,0.115,,,,
Cn1cc2c(n1)c(=O)n(Cc1cn[nH]c1)c1cc(Cl)ccc21 [Compound B235],0.1 to 1,0.668,> 3,4.29,> 3,> 3
COc1ccc(-n2c(=O)c3nn(C)cc3c3ccc(C(F)(F)F)nc32)cc1 [Compound B187],0.1 to 1,0.284,,,,
Cn1cnc2c(=O)n(-c3cccc4cccnc34)c3cc(Cl)c(C#N)cc3c21 [Compound B379],> 1,> 1,,,,
N#Cc1cc2c3cn(C(F)F)nc3c(=O)n(-c3cccc4[nH]ncc34)c2cc1Cl [Compound B283],< 0.1,0.088,,,,
Cn1cc2c(n1)c(=O)n(-c1cccc3[nH]nc(Br)c13)c1cc(Cl)c(F)cc21 [Compound B413],< 0.1,0.0074,< 0.2,0.0091,> 3,> 10
COc1ccc(-n2cc3c(n2)c(=O)n(-c2ccccc2)c2nc(C(F)(F)F)ccc32)cn1 [Compound B231],< 0.1,0.0399,,,,
O=c1c2c(cnn2CC(F)F)c2ccc(Cl)cc2n1-c1cccnc1 [Compound B170],0.1 to 1,0.22,,,,
Cn1cc2c(n1)c(=O)n(-c1cccnc1)c1cc(Cl)cc(F)c21 [Compound B172],< 0.1,0.0681,0.2 to 1,0.771,1 to 3,2.21
CCn1cc2c(n1)c(=O)n(-c1ccncc1)c1cc(Cl)ccc21 [Compound B10],> 1,> 1,,,,
Cn1cc2c(n1)c(=O)n(-c1ccc3ncoc3c1)c1cc(Cl)ccc21 [Compound B208],0.1 to 1,0.178,,,,
Cn1cc2c(n1)c(=O)n(-c1ccn3ccnc3c1)c1cc(Cl)ccc21 [Compound B205],< 0.1,0.0711,,,,
COc1cc2c3cn(C)nc3c(=O)n(-c3cccnc3)c2cc1Cl [Compound B171],< 0.1,0.0618,0.2 to 1,0.819,> 3,> 3
Cn1cc2c(n1)c(=O)n(-c1cccc3[nH]ncc13)c1nc(C(F)(F)F)c(C#N)cc21 [Compound B281],< 0.1,0.03,< 0.2,0.025,> 3,> 10
Cn1ccc(Cn2ncc3c4ccc(Cl)cc4n(-c4cccnc4)c(=O)c32)n1 [Compound B168],< 0.1,0.0992,,,,
"O=c1c2nn(C(F)F)cc2c2cc(F)c(Cl)cc2n1-c1cccnc1C1CC1 (single isomer, unassigned) [Compound B399]",,,,,> 3,> 10
CCn1cc2c(n1)c(=O)n(-c1ccc(OC)cc1)c1cc(Cl)ccc21 [Compound B11],> 1,> 1,,,,
CCn1nc2c(=O)n(-c3cccnc3)c3cc(Cl)ccc3c2c1C(F)F [Compound B25],< 0.1,0.0928,,,,

# From patent publication US20240391923A1, “METHIONINE ADENOSYLTRANSFERASE 2A INHIBITOR FOR TREATING MTAP DELETION-TYPE CANCER” (SUZHOU GENHOUSE BIO CO., LTD., priority 2022, published 2024)
